Experimental data published in ChEMBL document CHEMBL3046925, “,-Dibromoacetophenones mediated synthesis of some new 7H-7-alkoxy-3-alkyl/phenyl-6-aryl-s-triazolo[3,4-b][1,3,4]thiadiazines and their antimicrobial evaluation” (2012).
Converted amounts (≈) assume the structure as drawn. The source made the active and inactive calls. The rule behind the calls is not given here.

How the values were obtained:
Saccharomyces cerevisiae [1] = assay: Antimicrobial activity against Saccharomyces cerevisiae MTCC 170 after 24 hr by two-fold serial dilution method; assay type: functional; settings: MTCC 170, 24 h
Candida albicans [2] = assay: Antimicrobial activity against Candida albicans MTCC 227 at 2 mg/ml by two-fold serial dilution method; assay type: functional
Candida albicans [3] = assay: Antimicrobial activity against Candida albicans MTCC 227 at 2 mg/ml by agar well diffusion method; assay type: functional; settings: read-out: DIZ
Saccharomyces cerevisiae [4] = assay: Antimicrobial activity against Saccharomyces cerevisiae MTCC 170 at 2 mg/ml after 24 hr by agar well diffusion method; assay type: functional; settings: MTCC 170, 24 h, read-out: DIZ
Pseudomonas aeruginosa = assay: Antimicrobial activity against Pseudomonas aeruginosa MTCC 741 at 2 mg/ml after 24 hr by agar well diffusion method; assay type: functional, organism-based
Escherichia coli = assay: Antimicrobial activity against Escherichia coli MTCC 1652 at 2 mg/ml after 24 hr by agar well diffusion method; assay type: functional, organism-based
Bacillus subtilis [5] = settings: MTCC 121
Description: Antimicrobial activity against Bacillus subtilis MTCC 121 at 2 mg/ml after 24 hr by two-fold serial dilution method

Staphylococcus aureus [6] = settings: MTCC 96
Description: Antimicrobial activity against Staphylococcus aureus MTCC 96 after 24 hr by two-fold serial dilution method

Staphylococcus aureus [7] = settings: MTCC 96; remark: listed apart in the source
Description: Antimicrobial activity against Staphylococcus aureus MTCC 96 at 2 mg/ml after 24 hr by agar well diffusion method

Bacillus subtilis [8] = settings: MTCC 121; remark: listed apart in the source
Description: Antimicrobial activity against Bacillus subtilis MTCC 121 at 2 mg/ml after 24 hr by agar well diffusion method

MIC (Saccharomyces cerevisiae [1]): 32 µg/mL (≈ 99.1 µM)
MIC (Candida albicans [2]): 64 µg/mL (≈ 198 µM)
MIC (Bacillus subtilis [5]): inactive
MIC (Staphylococcus aureus [6]): inactive
SMILES: CCOC1Sc2nnc(CC)n2N=C1c1ccc(Cl)cc1 (stereo not given)
zone of inhibition at 2000 µg/mL (Candida albicans [3]): 15.6 mm
zone of inhibition at 2000 µg/mL (Saccharomyces cerevisiae [4]): 18.3 mm
Activity (Pseudomonas aeruginosa): inactive
Activity (Escherichia coli): inactive
DIZ (Staphylococcus aureus [7]): inactive
DIZ (Bacillus subtilis [8]): inactive
